Experimental data taken from patent US12023319B2, “Carboxylic acid aromatic amides” (priority 2016, dated 2024).

Columns and labels:
[1] = target: T1, native human Bradykinin B1 receptor (Homo sapiens, UniProt P46663); test: Calcium flux assay (FLIPR) with IMR-90 human fibroblasts expressing Bradykinin B1 receptor after IL-1beta induction (hB1 IMR-90); assay type: cell-based; conditions: IMR-90 human fibroblasts after IL-1beta induction, read-out: hB1 IMR90 IC50
T1 construct: which express native human Bradykinin B1 receptor after induction with human IL-1beta; Coriell Institute; host or cells: IMR-90 human foetal lung fibroblasts, induced with human IL-1beta
T1 sequence (P46663 1-353): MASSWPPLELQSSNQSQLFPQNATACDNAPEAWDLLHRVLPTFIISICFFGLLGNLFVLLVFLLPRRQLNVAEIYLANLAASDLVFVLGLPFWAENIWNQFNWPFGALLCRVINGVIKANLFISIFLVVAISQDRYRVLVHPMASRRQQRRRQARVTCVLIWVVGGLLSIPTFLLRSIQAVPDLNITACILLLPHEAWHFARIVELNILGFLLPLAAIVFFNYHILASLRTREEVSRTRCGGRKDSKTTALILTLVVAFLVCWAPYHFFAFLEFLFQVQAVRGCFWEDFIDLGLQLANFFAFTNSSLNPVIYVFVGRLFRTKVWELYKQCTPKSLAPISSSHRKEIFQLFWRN
Protocol: Calcium Flux Assay (FLIPR) with Human Fibroblasts Expressing Bradykinin B1 Receptor (hB1 IMR-90)
The Calcium flux Assay was carried out utilising IMR-90 human foetal lung fibroblasts (American Type Culture Collection, Rockville, MD; and Coriell Institute, Camden, New Jersey), which express native human Bradykinin B1 receptor after induction with human IL-1beta.
The fibroblasts were cultured in complete growth media comprised of Dulbecco's modified Eagle's medium (DMEM; Sigma) containing 10% foetal bovine serum, 4 mM L-glutamine, and 1% nonessential amino acids. The cells were maintained in a humidified atmosphere with 5% CO2 at 37° C. and were sub-cultured at a ratio of 1:3, every other day.
For the assay, IMR-90 fibroblasts were harvested using TrypLE Express (GIBCO/Invitrogen) and seeded into 384-well plates (Corning Cellbinding Surface, Cat. 3683) at a density of 15000 cells/well. The following day, cells were treated with 0.35 ng/mL human IL-1beta in 10% FBS/MEM for 3 h to up-regulate Bradykinin B1 receptor. Induced cells were loaded with fluorescent calcium indicator by incubation with 2.5 μM Fluo-4/AM (Invitrogen) at 37° C., 5% CO2 for 2 h in the presence of 2.5 mM probenecid in 1% FBS/MEM. […] Compound examples were assayed at 8 concentrations in triplicate. […] A peptide antagonist Lys-(Des-Arg-Leu)-Bradykinin (Bachem, Brackley) at 20 µM was used to determine the full inhibition as control. IC50 values were determined by the same way described for the FLI PR assay with recombinant cells.

[2] = target: T2, human Bradykinin B1 receptor (Homo sapiens, UniProt P46663); test: Calcium flux assay (FLIPR), CHO-K1 cells expressing human Bradykinin B1 receptor, absence of 0.1% BSA (hB1 free IC50); assay type: cell-based; conditions: absence of 0.1% BSA in assay buffer
T2 construct: host or cells: CHO-K1
T2 sequence (P46663 1-353): T1 sequence (P46663 1-353)
Procedure, shortened: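 Peak FLIPR fluorescence (538 nm) after B1 agonist peptide addition gave IC50s, scaled between DMSO and full block by 20 µM Lys-(Des-Arg-Leu)-Bradykinin. Compounds were preincubated 30 min at 28° C with calcium-dye-loaded CHO-K1 cells expressing human B1, at 8 concentrations in triplicate, 1% DMSO final.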

| Structure (SMILES) | IC50 [1] | IC50 [2] |
| --- | --- | --- |
| O=C(O)c1cc(NC(=O)C2(c3ccc(C(F)(F)F)cc3F)CC2)ccc1-c1ccc(C(F)F)nc1 [Example 4, 2-[6-(Difluoromethyl)pyridin-3-yl]-5-[({1-[2-fluoro-4-(trifluoromethyl)phenyl]cyclopropyl}carbonyl)amino]benzoic acid] | 3400 nM | 110 nM |
| O=C(O)c1cc(NC(=O)C2(c3ccc(OC(F)(F)F)cc3F)CC2)ccc1-c1ccc(C(F)(F)F)nc1 [Example 7, 5-[({1-[2-Fluoro-4-(trifluoromethoxy)phenyl]cyclopropyl}carbonyl)amino]-2-[6-(trifluoromethyl)pyridin-3-yl]benzoic acid] | 1100 nM | 200 nM |
| CCOc1ccc(-c2ccc(NC(=O)C3(c4cccc(Cl)c4)CC3)cc2C(=O)O)cn1 [Example 9, 5-({[1-(3-Chlorophenyl)cyclopropyl]carbonyl}amino)-2-(6-ethoxypyridin-3-yl)benzoic acid] | 320 nM | 140 nM |
| CCOc1ccc(-c2ccc(NC(=O)C3(c4ccc(OC(F)(F)F)cc4F)CC3)cc2C(=O)O)cn1 [Example 11, 2-(6-Ethoxypyridin-3-yl)-5-[({1-[2-fluoro-4-(trifluoromethoxy)phenyl]cyclopropyl}carbonyl)amino]benzoic acid] | 25 nM | 19 nM |
| CC(C)(C)c1ccn(-c2ccc(NC(=O)C3(c4ccc(C(F)(F)F)cc4F)CC3)cc2C(=O)O)n1 [Example 12, 2-(3-tert-Butyl-1H-pyrazol-1-yl)-5-[({1-[2-fluoro-4-(trifluoromethyl)phenyl]cyclopropyl}carbonyl)amino]benzoic acid] | 2900 nM | 1200 nM |
| CC(C)(C)c1cnn(-c2ccc(NC(=O)C3(c4ccc(OC(F)(F)F)cc4F)CC3)cc2C(=O)O)c1 [Example 13, 2-(4-tert-Butyl-1H-pyrazol-1-yl)-5-[({1-[2-fluoro-4-(trifluoromethoxy)phenyl]cyclopropyl}carbonyl)amino]benzoic acid] | 310 nM | 110 nM |
| Cc1ccc(C2(C(=O)Nc3ccc(-n4cc(C(C)(C)C)cn4)c(C(=O)O)c3)CC2)c(F)c1 [Example 14, 2-(4-tert-Butyl-1H-pyrazol-1-yl)-5-({[1-(2-fluoro-4-methylphenyl)cyclopropyl]carbonyl}amino)benzoic acid] | 1100 nM | 1000 nM |
| CC(C)(C)c1cnn(-c2ccc(NC(=O)C3(c4ccc(C(F)(F)F)cc4F)CC3)cc2C(=O)O)c1 [Example 17, 2-(4-tert-Butyl-1H-pyrazol-1-yl)-5-[({1-[2-fluoro-4-(trifluoromethyl)phenyl]cyclopropyl}carbonyl)amino]benzoic acid] | 100 nM | 230 nM |
| Cc1ccc(-c2ccc(NC(=O)C3(c4ccc(C(F)(F)F)cc4F)CC3)cc2C(=O)O)nc1 [Example 18, 5-[({1-[2-Fluoro-4-(trifluoromethyl)phenyl]cyclopropyl}carbonyl)amino]-2-(5-methylpyridin-2-yl)benzoic acid] | 830 nM | 270 nM |
| CC(C1CC1)n1cc(-c2ccc(NC(=O)C3(c4ccc(C(F)(F)F)cc4F)CC3)cc2C(=O)O)cn1 (stereo not drawn) [Example 153, 2-[1-(1-Cyclopropylethyl)-1H-pyrazol-4-yl]-5-[({1-[2-fluoro-4-(trifluoromethyl)phenyl]cyclopropyl}carbonyl)amino]benzoic acid] |  | 8.7 nM |
| COCCn1cc(-c2ccc(NC(=O)C3(c4ccc(C(F)(F)F)cc4F)CC3)cc2C(=O)O)cn1 [Example 155, 5-[({1-[2-Fluoro-4-(trifluoromethyl)phenyl]cyclopropyl}carbonyl)amino]-2-[1-(2-methoxyethyl)-1H-pyrazol-4-yl]benzoic acid] |  | 270 nM |
| Cn1ncc2ccc(-c3ccc(NC(=O)C4(c5ccc(OC(F)(F)F)cc5F)CC4)cc3C(=O)O)cc21 [Example 164, 5-[({1-[2-Fluoro-4-(trifluoromethoxy)phenyl]cyclopropyl}carbonyl)amino]-2-(1-methyl-1H-indazol-6-yl)benzoic acid] |  | 120 nM |
| O=C(O)c1cc(NC(=O)C2(c3ccc(C(F)(F)F)cc3F)CC2)ccc1-c1cnc(C2CCCC2)s1 [Example 167, 2-(2-Cyclopentyl-1,3-thiazol-5-yl)-5-[({1-[2-fluoro-4-(trifluoromethyl)phenyl]cyclopropyl}carbonyl)amino]benzoic acid] |  | 3.4 nM |
| Cc1cnc(-c2ccc(NC(=O)C3(c4ccc(C(F)(F)F)cc4F)CC3)cc2C(=O)O)cn1 [Example 169, 5-[({1-[2-Fluoro-4-(trifluoromethyl)phenyl]cyclopropyl}carbonyl)amino]-2-(5-methylpyrazin-2-yl)benzoic acid] |  | 2100 nM |
| O=C(O)c1cc(NC(=O)C2(c3ccc(OC(F)(F)F)cc3F)CC2)ccc1-c1cn(C2CCC2)cn1 [Example 170, 2-(1-Cyclobutyl-1H-imidazol-4-yl)-5-[({1-[2-fluoro-4-(trifluoromethoxy)phenyl]cyclopropyl}carbonyl)amino]benzoic acid] |  | 2100 nM |
| COc1ccc(C2(C(=O)Nc3ccc(-c4cnn(C5CCC5)c4)c(C(=O)O)c3)CC2)c(F)c1 [Example 171, 2-(1-Cyclobutyl-1H-pyrazol-4-yl)-5-({[1-(2-fluoro-4-methoxyphenyl)cyclopropyl]carbonyl}amino)benzoic acid] |  | 390 nM |

Second part, the compound after the results:

| IC50 [1] | IC50 [2] | Structure (SMILES) |
| --- | --- | --- |
| 33 nM | 18 nM | CCOc1ccc(-c2ccc(NC(=O)C3(c4ccc(C(F)(F)F)cc4F)CC3)cc2C(=O)O)cn1 [Example 10, 2-(6-Ethoxypyridin-3-yl)-5-[({1-[2-fluoro-4-(trifluoromethyl)phenyl]cyclopropyl}carbonyl)amino]benzoic acid] |
| 130 nM | 67 nM | Cc1ccc(-c2ccc(NC(=O)C3(c4ccc(C(F)(F)F)cc4F)CC3)cc2C(=O)O)cn1 [Example 19, 5-[({1-[2-Fluoro-4-(trifluoromethyl)phenyl]cyclopropyl}carbonyl)amino]-2-(6-methylpyridin-3-yl)benzoic acid] |
|  | 21 nM | CCc1ccc(-c2ccc(NC(=O)C3(c4ccc(C(F)(F)F)cc4F)CC3)cc2C(=O)O)cn1 [Example 160, 2-(6-Ethylpyridin-3-yl)-5-[({1-[2-fluoro-4-(trifluoromethyl)phenyl]cyclopropyl}carbonyl)amino]benzoic acid] |
|  | 15 nM | CCc1ccc(-c2ccc(NC(=O)C3(c4ccc(OC(F)(F)F)cc4F)CC3)cc2C(=O)O)cn1 [Example 161, 2-(6-Ethylpyridin-3-yl)-5-[({1-[2-fluoro-4-(trifluoromethoxy)phenyl]cyclopropyl}carbonyl)amino]benzoic acid] |
|  | 14 nM | CCc1ccc(-c2c(F)cc(NC(=O)C3(c4ccc(C(F)(F)F)cc4F)CC3)cc2C(=O)O)cn1 [Example 162, 2-(6-Ethylpyridin-3-yl)-3-fluoro-5-[({1-[2-fluoro-4-(trifluoromethyl)phenyl]cyclopropyl}carbonyl)amino]benzoic acid] |
|  | 63 nM | Cn1ncc2ccc(-c3c(F)cc(NC(=O)C4(c5ccc(C(F)(F)F)cc5F)CC4)cc3C(=O)O)cc21 [Example 165, 3-Fluoro-5-[({1-[2-fluoro-4-(trifluoromethyl)phenyl]cyclopropyl}carbonyl)amino]-2-(1-methyl-1H-indazol-6-yl)benzoic acid] |
|  | 24 nM | Cn1ncc2ccc(-c3c(F)cc(NC(=O)C4(c5ccc(OC(F)(F)F)cc5F)CC4)cc3C(=O)O)cc21 [Example 166, 3-Fluoro-5-[({1-[2-fluoro-4-(trifluoromethoxy)phenyl]cyclopropyl}carbonyl)amino]-2-(1-methyl-1H-indazol-6-yl)benzoic acid] |
|  | 3.3 nM | O=C(O)c1cc(NC(=O)C2(c3ccc(C(F)(F)F)cc3F)CC2)cc(F)c1-c1cnc(C2CCC2)s1 [Example 168, 2-(2-Cyclobutyl-1,3-thiazol-5-yl)-3-fluoro-5-[({1-[2-fluoro-4-(trifluoromethyl)phenyl]cyclopropyl}carbonyl)amino]benzoic acid] |
|  | 30 nM | O=C(O)c1cc(NC(=O)C2(c3ccc(C(F)(F)F)cc3F)CC2)cc(F)c1-c1cnn(CC(F)(F)F)c1 [Example 172, 3-Fluoro-5-[({1-[2-fluoro-4-(trifluoromethyl)phenyl]cyclopropyl}carbonyl)amino]-2-[1-(2,2,2-trifluoroethyl)-1H-pyrazol-4-yl]benzoic acid] |
